{"source": "patent US20040229771A1", "about": "“Method of reducing decline of or preserving residual renal function” (priority 2003, published 2004)", "origin": "cited, not measured here", "tested_on": "cell culture", "settings": "cell culture experiments, reference (2)"}
{"smiles": "O=CC(=O)C=CC(O)CO", "note": "(stereo not shown) [3,4-DGE, 3,4-dideoxyglucosone-3-ene]", "values": [{"measurement": "immunosuppressive effects", "value": "immunosuppressive effects"}]}
